Assay results: US10908141B2, “Methods and kits for detecting non-luminescent or weakly luminescent metals” (New York University, priority 2012, dated 2021)
“And” between values parts separate entries of the source, which are not always exact repeats. Identical values can stand only once.

Legend:
[1] = Absorption and fluorescence spectroscopy (plate reader / nanodrop); assay type: physicochemical
[2] = Stability of the chelate in solution over time (Tb/Gd metal exchange); assay type: physicochemical; details: 5, 30, and 60 minutes
Text: To determine the stability of the chelate in solution as a function of time, readings were made at different time points. If there is an exchange of Tb with Gd on the sensitized chelate, then a dramatic increase in signal should be observed. The intensity of cs124-DTPA-Tb is 10000 fold higher than the equivalent concentration of cs124-DTPA-Gd.

[3] = Relaxivity r1
[4] = mouse plasma, 0.1 mmol/kg via saphenous vein, bi-exponential fit
[5] = Xylenol orange determination of free Gd3+ after chelation; assay type: physicochemical
Method: When xylenol orange coordinates Gd^3+ ion, absorption at 573 decreases relative to that at 433.
For determination of free Gd^3+ in solution after chelation. 3 mg xylenol orange was dissolved in 50 mM acetic acid pH 5.8, and 90 μL added to each well of a clear 96 well plate. Triplicate samples of 10 μL 10^−3M cs124-DTPA were added to each well, and increasing amounts of […] titrated in. Absorption was read at 573 and 433, against a standard of known Gd^3+ concentration.

[6] = Diffusivity by dynamic light scattering (DLS); assay type: physicochemical
[7] = in vivo; cited from earlier work

Row | Compound | Absorbance Amax [1] [nm] | Fluorescence Emmax [1] [nm] | Fluorescence Exmax [1] [nm] | Change of intensity over time (metal exchange between sensitized and unsensitized chelates) [2] | Relaxivity compared with DTPA-Gd [3] | Relaxivity r1 [3] [M⁻¹ ms⁻¹] | Characteristic distribution time [4] | Elimination time [4] | Free Gd3+ ion concentration ([5]; incubated with 50 mM xylenol orange) [%] | Concentration of chelated complex above which free Gd3+ is detectable ([5]; incubated with xylenol orange in 50 mM acetic acid pH 5.8) | Diffusivity D [6] | Distribution half-life [7] [min] | Distribution time (manufacturer's data) [7] [min] | Elimination time (manufacturer's data) [7] [min] | Plasma clearance half-life [7]
1 | Cc1cc(=O)[nH]c2cc(N)ccc12 [cs124, carbostyril124, reference compound] | 328 | 370 | 310 | – | – | – | – | – | – | – | – | – | – | – | –
2 | carbostyril-124-diethylenetriaminepentaacetic acid-Gadolinium [cs124-DTPA-Gd] | 328 | 375 | 341 | No significant change | the same as that of DTPA-Gd | 3.32 ± 1.4 | 13.2 ± 0.543 min and 14 min | 92.2 ± 11.7 min and 90 min | 0.06 | above 1.75 mM | 2.5 × 10^−6 cm^2/s | – | – | – | –
3 | O=C([O-])CN(CCN(CC(=O)[O-])CC(=O)O)CCN(CC(=O)[O-])CC(=O)O.[Gd+3] [Magnevist ®, gadolinium-diethylenetriaminepentaacetic acid] | – | – | – | – | – | 3.4 | – | – | – | – | – | 12 | 12.2 ± 7.8 | 96.0 ± 7.8 | approximately 81 min
4 | [Gd+3] [Gd3+, reference compound] | – | – | – | – | – | 9.16 ± 0.96 | – | – | – | – | 8.0 × 10^−6 cm^2/s | – | – | – | –
